Reference: patent publication US20120040951A1, “HETEROARYL COMPOUNDS USEFUL AS RAF KINASE INHIBITORS” (priority 2008, published 2012)

Assays:
[1] = tested on: phospho-ERK in melanoma derived WM-266-4 cells; assay: Mechanistic cellular assay for Raf kinase activity (phospho-ERK, Bio-Plex); type: cell-based; conditions: Homo sapiens, treated 1-2 hr at 37° C., serum free medium, read-out: pERK EC50
How it was run: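 WM-266-4 melanoma cells (wild-type/V600D BRaf) grown overnight in 10% FBS RPMI, then treated 1–2 h at 37 °C in serum-free RPMI with eight 3-fold dilutions of compound (from 5 mM DMSO stock, 1000× dilution). Lysate phospho-ERK1,2 quantified by Bio-Plex bead immunoassay.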

[2] = target: V599E Raf (Homo sapiens, UniProt P15056, V600E); assay: Biochemical FRET assay, mutant Raf (phosphorylation of MEK); conditions: 0.125 nM V599E Raf, 100 nM biotin-MEK, 25 μM ATP, read-out: Raf (mut) inhibition
Sequence of V599E Raf (P15056 whole entry V600E): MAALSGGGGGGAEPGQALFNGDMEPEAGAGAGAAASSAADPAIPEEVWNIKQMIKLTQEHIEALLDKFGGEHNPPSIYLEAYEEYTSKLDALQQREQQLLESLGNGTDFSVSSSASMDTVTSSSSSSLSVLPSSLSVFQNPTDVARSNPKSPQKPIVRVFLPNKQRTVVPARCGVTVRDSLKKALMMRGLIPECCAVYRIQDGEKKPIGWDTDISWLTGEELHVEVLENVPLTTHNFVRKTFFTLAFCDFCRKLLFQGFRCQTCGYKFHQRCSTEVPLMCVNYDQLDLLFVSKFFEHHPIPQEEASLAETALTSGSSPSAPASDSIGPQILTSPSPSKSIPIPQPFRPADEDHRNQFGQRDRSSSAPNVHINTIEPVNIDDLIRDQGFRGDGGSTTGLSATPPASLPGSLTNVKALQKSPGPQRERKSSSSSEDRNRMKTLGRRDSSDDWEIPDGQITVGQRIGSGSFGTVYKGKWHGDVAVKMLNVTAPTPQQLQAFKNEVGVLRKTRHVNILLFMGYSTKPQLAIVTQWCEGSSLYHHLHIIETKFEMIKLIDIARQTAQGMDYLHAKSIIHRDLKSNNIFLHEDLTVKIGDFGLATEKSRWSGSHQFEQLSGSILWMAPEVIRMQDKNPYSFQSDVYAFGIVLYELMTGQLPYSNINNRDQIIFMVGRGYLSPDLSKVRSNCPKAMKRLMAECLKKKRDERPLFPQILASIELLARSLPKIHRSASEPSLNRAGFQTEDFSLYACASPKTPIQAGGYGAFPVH
How it was run: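 V599E Raf (0.125 nM) preincubated 20 min with inhibitor and 100 nM biotin-MEK in HEPES pH 7.4 with Mg2+/Mn2+, then reacted with 25 μM ATP for 60 min at room temperature. EDTA-stopped; phospho-MEK1/2 (Ser217/221) detected by Eu/APC TR-FRET after 90 min.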

SMILES | EC50 [1] | IC50 [2]
C[C@@H](NC(=O)c1cnn2ccccc12)c1cc(C(=O)Nc2cccc(OC(F)(F)F)c2)on1 [Example 217] | 100 to 1000 nM | ≤ 100 nM
COCCn1c(C(=O)NC(C)c2cnc(Nc3ccc(C(F)(F)F)cc3)s2)cnc1C (centres unmarked) [Example 140] | 1000 to 10000 nM | ≤ 100 nM
CC(NC(=O)c1cc2c(cn1)nc(N)n2C)c1cnc(Nc2cnc(C(C)(C)C)nc2)s1 (centres unmarked) [Example 287] | ≤ 100 nM | ≤ 100 nM
CC(NC(=O)c1cc2c(cn1)ncn2C1CNC1)c1cnc(Nc2ccc(C(F)(F)F)cc2)cn1 (centres unmarked) [Example 179] | 100 to 1000 nM | ≤ 100 nM
CC(=O)N1CCn2c(C(=O)N[C@H](C)c3ncc(C(=O)Nc4cc(C(F)(F)F)c(Cl)cn4)s3)cnc2C1 [Example 316] | 1000 to 10000 nM | 100 to 1000 nM
O=C(Nc1ccc(Cl)c(C(F)(F)F)c1)c1ccc(CNC(=O)c2cnn3ccccc23)cc1 [Example 231] | 1000 to 10000 nM | 100 to 1000 nM
CCc1[nH]ncc1C(=O)N[C@H](C)c1ncc(C(=O)Nc2cc(C(F)(F)F)c(Cl)cn2)s1 [Example 125] | 100 to 1000 nM | 100 to 1000 nM
CCn1cnc2cnc(C(=O)NC(C)c3cnc(Nc4ccc(C(F)(F)F)cc4)s3)nc21 (centres unmarked) [Example 198] | 100 to 1000 nM | ≤ 100 nM
CCn1cnc2cnc(C(=O)N[C@H](C)c3cnc(Nc4ccc(C(F)(F)F)cc4)cn3)cc21 [Example 174] | ≤ 100 nM | ≤ 100 nM
C[C@H](NC(=O)c1cc2c(cn1)ncn2C1CCC1)c1cnc(Nc2ccc(C(F)(F)F)cc2)cn1 [Example 187] | 1000 to 10000 nM | 100 to 1000 nM
Cc1ccc(NC(=O)c2cc([C@@H](C)NC(=O)c3cnn4cc(-c5ccncn5)cnc34)no2)cc1C(F)(F)F [Example 333] | 100 to 1000 nM | 100 to 1000 nM
CC(NC(=O)c1cc2c(cn1)ncn2C)c1ncc(C(=O)Nc2cc(C(C)(C)C)on2)s1 (centres unmarked) [Example 43] | ≤ 100 nM | ≤ 100 nM
COc1ccc(C(F)(F)F)cc1NC(=O)c1cc([C@@H](C)NC(=O)c2cnn3ccccc23)no1 [Example 214] | 100 to 1000 nM | 100 to 1000 nM
CC(NC(=O)c1cnc2n1CCCN2)c1cnc(Nc2ccc(C(F)(F)F)cc2)s1 (centres unmarked) [Example 177] | 100 to 1000 nM | ≤ 100 nM
Cc1nc(C(C)NC(=O)c2cc3c(cn2)ncn3C)c(C)nc1Nc1ccc(C(F)(F)F)cc1 (centres unmarked) [Example 341] | 1000 to 10000 nM | 100 to 1000 nM
Cc1cn(-c2cncc(C(=O)NC(C)c3ncc(C(=O)Nc4cc(C(F)(F)F)c(Cl)cn4)s3)c2)cn1 (centres unmarked) [Example 51] | 1000 to 10000 nM | 100 to 1000 nM
C[C@@H](NC(=O)c1cnn2cc(-c3cccnc3)ccc12)c1cc(C(=O)Nc2cccc(OC(F)(F)F)c2)on1 [Example 332] | ≤ 100 nM | 100 to 1000 nM
C[C@@H](NC(=O)c1cnn2ccccc12)c1ncc(C(=O)Nc2cc(C(F)(F)F)c(Cl)cn2)s1 [Example 86] | 100 to 1000 nM | ≤ 100 nM
C[C@@H](NC(=O)c1cc2c(cn1)ncn2C)c1cnc(Nc2cnc(C(C)(C)C)nc2)s1 [Example 241] | ≤ 100 nM | ≤ 100 nM
Cc1ncsc1C(=O)N[C@H](C)c1ncc(C(=O)Nc2cc(C(F)(F)F)c(Cl)cn2)s1 [Example 99] | 1000 to 10000 nM | ≤ 100 nM
Cc1ccc(NC(=O)c2cc([C@@H](C)NC(=O)c3cnn4cccnc34)no2)cc1C(F)(F)F [Example 221] | 100 to 1000 nM | 100 to 1000 nM

The remaining lines, values ahead:

EC50 [1] | IC50 [2] | SMILES
1000 to 10000 nM | ≤ 100 nM | CC(NC(=O)c1cc2c(cn1)ncn2C)c1cnc(Nc2cc(C#N)cc(C(C)(C)C)c2)s1 (centres unmarked) [Example 350]
100 to 1000 nM | ≤ 100 nM | CCn1cnc2cnc(C(=O)NC(C)c3cnc(Nc4ccc(C(F)(F)F)nc4)s3)cc21 (centres unmarked) [Example 291]
≤ 100 nM | ≤ 100 nM | CC(C)N1CC(n2cnc3cnc(C(=O)N[C@H](C)c4cnc(Nc5ccc(C(F)(F)F)cc5)s4)cc32)C1 [Example 183]
100 to 1000 nM | ≤ 100 nM | COc1cc(C(F)(F)F)ccc1Nc1cnc(C(C)NC(=O)c2cc3c(cn2)ncn3C)cn1 (centres unmarked) [Example 265b]
100 to 1000 nM | ≤ 100 nM | CCOc1cc(C(F)(F)F)ccc1Nc1ncc(C(C)NC(=O)c2cc3c(cn2)ncn3C)s1 (centres unmarked) [Example 283]
100 to 1000 nM | ≤ 100 nM | CC(NC(=O)c1cc2c(cn1)ncn2C)c1cnc(Nc2ccc(C(F)(F)F)cn2)cn1 (centres unmarked) [Example 262]
≤ 100 nM | ≤ 100 nM | COc1cc(C(F)(F)F)ccc1Nc1ncc(C(C)NC(=O)c2cc3c(cn2)ncn3C)s1 (centres unmarked) [Example 244]
≤ 100 nM | ≤ 100 nM | CC(NC(=O)c1cc2c(cn1)ncn2C)c1cnc(Nc2ccc(F)c(C(C)(C)C(F)(F)F)c2)s1 (centres unmarked) [Example 290]
≤ 100 nM | ≤ 100 nM | CC(NC(=O)c1cc2c(cn1)ncn2C)c1cnc(Nc2ccc(C(F)(F)F)cc2)cn1 (centres unmarked) [Example 35]
≤ 100 nM | ≤ 100 nM | CCN1CC(n2cnc3cnc(C(=O)N[C@H](C)c4cnc(Nc5ccc(C(F)(F)F)cc5)s4)cc32)C1 [Example 30]
≤ 100 nM | ≤ 100 nM | C[C@@H](NC(=O)c1cc2c(cn1)ncn2C1CN(CCO)C1)c1cnc(Nc2ccc(C(F)(F)F)cc2)s1 [Example 348]
100 to 1000 nM | ≤ 100 nM | CC(C)Oc1cc(C(F)(F)F)ccc1Nc1ncc(C(C)NC(=O)c2cc3c(cn2)ncn3C)s1 (centres unmarked) [Example 289]
100 to 1000 nM | ≤ 100 nM | CCNCCn1cnc2cnc(C(=O)NC(C)c3cnc(Nc4ccc(C(F)(F)F)cc4)s3)cc21 (centres unmarked) [Example 34]
